In PMC11813896, “Bis(7)-harmine derivatives as potential multi-target anti-Alzheimer agents” (Frontiers in Chemistry, 2025):
Read-outs that look alike come from different tables or passages of the source.

What was measured:
[1] = test system: AChE; conditions: cited from earlier work
[2] = test system: BuChE; conditions: cited from earlier work
[3] = test system: BACE1; design: method as in Bolognesi et al., 2010; conditions: ref Bolognesi et al., 2010; read-out: IC50 for inhibiting BACE1 (bis-tacrine); cited from earlier work
[4] = test system: Aβ1-42; conditions: cited from earlier work
[5] = biological target: hAChE (Homo sapiens, UniProt P22303); assay: biochemical; conditions: for IC50: Mean ± SD from 3-5 assays, read-out: IC50 (nM) for cholinesterase hAChE
hAChE, sequence (P22303 32-614): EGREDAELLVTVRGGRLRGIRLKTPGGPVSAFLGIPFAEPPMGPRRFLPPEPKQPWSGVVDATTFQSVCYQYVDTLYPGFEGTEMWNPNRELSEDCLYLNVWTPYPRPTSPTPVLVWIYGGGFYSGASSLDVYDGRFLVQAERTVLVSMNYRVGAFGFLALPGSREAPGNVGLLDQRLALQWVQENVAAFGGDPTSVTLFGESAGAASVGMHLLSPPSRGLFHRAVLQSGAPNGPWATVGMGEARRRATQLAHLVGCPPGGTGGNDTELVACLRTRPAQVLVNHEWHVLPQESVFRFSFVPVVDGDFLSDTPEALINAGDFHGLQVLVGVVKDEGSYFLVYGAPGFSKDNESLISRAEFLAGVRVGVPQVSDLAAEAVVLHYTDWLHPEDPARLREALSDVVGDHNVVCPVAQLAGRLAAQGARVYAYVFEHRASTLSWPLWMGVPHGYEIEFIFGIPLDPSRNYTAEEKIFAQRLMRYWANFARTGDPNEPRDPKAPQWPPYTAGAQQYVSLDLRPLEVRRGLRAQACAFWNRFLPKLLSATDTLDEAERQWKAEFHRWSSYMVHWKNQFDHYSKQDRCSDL
Experimental: 50 μL of hAChE (0.02 unit/mL) or hBChE (0.02 unit/mL) were incubated with 10 μL of the compound in 96-well plates at 37°C for 6 min. Subsequently, 30 μL of a substrate solution containing acetylthiocholine iodide (ATCI) or butyrylthiocholine iodide (BTCI) at a concentration of 0.01 M was added, and the mixture was further incubated at 37°C for an additional duration of 12 min.

[6] = biological target: hBuChE (Homo sapiens, UniProt P06276); assay: Ellman's assay, hBuChE inhibition; assay type: biochemical; conditions: for IC50: Mean ± SD from 3-5 assays, read-out: IC50 (nM) for cholinesterase hBuChE; for inhibition at 1 µM: compound at 1 μM, read-out: inhibition of hBuChE in primary screening
hBuChE, sequence (P06276 29-602): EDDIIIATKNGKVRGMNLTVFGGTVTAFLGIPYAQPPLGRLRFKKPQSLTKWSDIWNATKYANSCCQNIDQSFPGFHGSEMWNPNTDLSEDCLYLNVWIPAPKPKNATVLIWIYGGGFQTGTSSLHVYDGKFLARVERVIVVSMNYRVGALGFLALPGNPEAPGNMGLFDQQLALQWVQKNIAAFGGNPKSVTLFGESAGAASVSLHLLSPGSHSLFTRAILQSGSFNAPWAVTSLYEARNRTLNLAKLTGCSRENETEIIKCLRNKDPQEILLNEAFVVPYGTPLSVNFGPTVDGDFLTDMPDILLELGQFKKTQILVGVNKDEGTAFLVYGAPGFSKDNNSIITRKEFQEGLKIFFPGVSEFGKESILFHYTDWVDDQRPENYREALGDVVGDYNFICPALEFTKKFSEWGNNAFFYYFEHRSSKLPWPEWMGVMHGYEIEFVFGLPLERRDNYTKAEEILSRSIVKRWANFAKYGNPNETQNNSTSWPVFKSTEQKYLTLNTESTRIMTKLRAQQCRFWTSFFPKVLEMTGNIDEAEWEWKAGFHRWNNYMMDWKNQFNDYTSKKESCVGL
Experimental: The Ellman’s assay was utilized to assess the inhibitory potential of novel bis(7)-harmine derivatives against hAChE and hBuChE. 50 μL of hAChE (0.02 unit/mL) or hBChE (0.02 unit/mL) were incubated with 10 μL of the compound in 96-well plates at 37°C for 6 min. Subsequently, 30 μL of a substrate solution containing acetylthiocholine iodide (ATCI) or butyrylthiocholine iodide (BTCI) at a concentration of 0.01 M was added, and the mixture was further incubated at 37°C for an additional duration of 12 min. Finally, the activity was measured by adding 150 μL of a solution containing 5,5′−dithiobis (2-nitrobenzoic acid) (DTNB) at a concentration of 0.01 M, followed by measuring absorbance at a wavelength of 415 nm using an Evolution 300 PC UV-Vis Spectrophotometer.

[7] = biological target: T1, recombinant hMAO-A (Homo sapiens, UniProt P21397); assay: biochemical; conditions: for IC50: mean ± SD, read-out: IC50 (nM) for monoamine oxidases hMAO-A
T1 construct: purchased Sigma-Aldrich
T1 sequence (P21397 1-527): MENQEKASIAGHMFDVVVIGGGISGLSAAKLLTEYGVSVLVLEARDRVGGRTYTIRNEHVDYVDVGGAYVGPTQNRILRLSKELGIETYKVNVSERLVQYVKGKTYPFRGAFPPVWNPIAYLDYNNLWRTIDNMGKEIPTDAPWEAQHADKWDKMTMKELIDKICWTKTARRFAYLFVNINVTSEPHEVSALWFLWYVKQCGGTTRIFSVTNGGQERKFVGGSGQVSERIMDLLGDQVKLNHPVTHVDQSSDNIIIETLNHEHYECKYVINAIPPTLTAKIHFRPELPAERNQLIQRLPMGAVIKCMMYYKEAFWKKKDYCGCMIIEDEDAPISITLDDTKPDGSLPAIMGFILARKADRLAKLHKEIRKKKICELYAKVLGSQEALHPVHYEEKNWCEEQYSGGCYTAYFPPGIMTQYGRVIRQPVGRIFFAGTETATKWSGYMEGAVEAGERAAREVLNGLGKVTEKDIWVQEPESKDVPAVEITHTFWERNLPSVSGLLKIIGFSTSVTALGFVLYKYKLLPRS
Experimental: (§1) Briefly, the compounds under investigation and the reference inhibitor were preincubated with kynuramine at 37°C for 10 min in 96-well microplates. […] The enzymatic reactions were terminated by adding 400 μL of 2 N NaOH and 1,000 μL of water, followed by centrifugation at 16,000 g for 10 min. Subsequently, the concentrations of MAOs that produced 4-hydroxyquinoline were determined by measuring the fluorescence of the supernatant using a Varioskan Flash Multimode Reader ([…]) with excitation and emission wavelengths set at 310 nm and 400 nm, respectively. The IC50 values were calculated from dose-response curves and expressed as the mean ± standard deviation. These values were determined based on at least three independent experiments, each performed in triplicate.

[8] = biological target: T2, recombinant hMAO-B (Homo sapiens, UniProt P27338); assay: biochemical; conditions: mean ± SD; read-out: IC50 (nM) for monoamine oxidases hMAO-B
T2 construct: purchased Sigma-Aldrich
T2 sequence (P27338 1-520): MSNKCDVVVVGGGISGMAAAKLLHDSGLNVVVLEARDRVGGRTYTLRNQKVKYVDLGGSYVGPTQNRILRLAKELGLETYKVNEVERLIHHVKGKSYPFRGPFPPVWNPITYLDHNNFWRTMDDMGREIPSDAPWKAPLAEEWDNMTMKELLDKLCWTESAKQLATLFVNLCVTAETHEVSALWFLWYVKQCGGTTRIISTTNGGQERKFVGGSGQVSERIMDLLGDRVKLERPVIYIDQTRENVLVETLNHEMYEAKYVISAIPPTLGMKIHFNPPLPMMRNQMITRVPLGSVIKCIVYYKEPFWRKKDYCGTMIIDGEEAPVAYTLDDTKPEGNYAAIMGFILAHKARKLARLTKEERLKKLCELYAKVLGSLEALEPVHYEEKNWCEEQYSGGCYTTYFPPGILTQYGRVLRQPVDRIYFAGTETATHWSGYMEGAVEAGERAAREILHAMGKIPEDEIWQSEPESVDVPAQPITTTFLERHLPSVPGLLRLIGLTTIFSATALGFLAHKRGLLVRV
Experimental: as §1

[9] = biological target: Aβ 1−42 (Homo sapiens, UniProt P05067); assay: Thioflavin T fluorescence assay, Aβ 1−42 self-aggregation; assay type: biochemical; conditions: Aβ 1-42 20 μM, 37°C, 24 h
Aβ 1−42, sequence (P05067 672-713 limits assumed): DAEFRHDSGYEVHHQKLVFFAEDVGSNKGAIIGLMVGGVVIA
Experimental: The thioflavin T (Th-T) fluorescence assay was used to assess the inhibition of Aβ 1−42 self-aggregation. […] Subsequently, the reaction was terminated to a final volume of 200 μL using Th-T (10 μM) solution.

[10] = test system: SHSY5Y cells; assay: In vitro cytotoxicity, MTT assay; assay type: cell-based; conditions: for cytotoxicity in SHSY5Y cells: 0.1 to 10 μM; for SHSY5Y cell viability at increased concentration: concentration increased to 10 μM (so in the source)
Experimental: Following this incubation period, the MTT solution was substituted with […] of DMSO and further incubated at room temperature for 10 minutes to dissolve formazan crystals formed by viable cells. Sorensen Buffer ([…]) was added subsequently followed by measuring absorbance at a wavelength of 570 nm to determine cell viability based on calculated values obtained from control samples without compound treatment. This experimental procedure was repeated independently three times.

[11] = test system: SHSY5Y cells; assay: Protection of SHSY5Y cells against damage induced by Aβ 1−42, MTT; assay type: cell-based, human; conditions: for cellular recovery from Aβ 1-42-induced damage: 1 μM, co-exposed with Aβ 1-42 for 48 h
Experimental: The protective effect of the test compounds against Aβ 1-42-induced damage was assessed by monitoring MTT reduction in cells co-exposed to the compound and Aβ 1-42 for 48 h (Figure 3) ([…]). The 6d, 8c, and 8d were tested at concentrations of 1, 5, and 10 μM. […] Therefore, it is imperative to elucidate the underlying mechanisms responsible for these protective effects.
The SHSY5Y cells were seeded in 96-well plates at a density of 1 × 10^4 cells per well and incubated at 37°C for 24 h. Each compound was dissolved in DMSO, followed by direct dilution in the cell culture medium to achieve final concentrations of 1 μM, 5 μM, and 10 μM. Aβ 1−42 was added to each well at a concentration of 5 μM. The cells were then further incubated at 37°C for an additional period of 48 h. Cell viability was subsequently assessed using the MTT assay protocol ([…]).

Molecule	S.I. Selectivity index IC50(hBuChE)/IC50(hAChE) [5]	IC50 [5]	S.I. Selectivity index IC50(hMAO-B)/IC50(hMAO-A) [7]	IC50 [7]	IC50 [8]	IC50 [9]	inhibition at 1 µM [6]	other results
c1ccc2c(NCCCCCCCNc3c4c(nc5ccccc35)CCCC4)c3c(nc2c1)CCCC3 [Compound 2, Bis-tacrine]								IC50 ([1]; ref Bolognesi et al., 2010, read-out: IC50 for inhibiting AChE (bis-tacrine)): […]; IC50 ([2]; ref Bolognesi et al., 2010, read-out: IC50 for inhibiting BuChE (bis-tacrine)): 5.66 nM; IC50 [3]: 7500 nM; Aβ1-42 (bis-tacrine, Figure 1) ([4]; ref Bolognesi et al., 2010): 68.0%
c1ccc2c(c1)[nH]c1c[n+](CCCCCCCCCCCC[n+]3ccc4c(c3)[nH]c3ccccc34)ccc12 [Compound 4]								IC50 ([1]; ref Rook et al., 2010, Zhao et al., 2018, read-out: AChE (bis-(2)-β-carboline 4, Figure 1)): 86 nM; IC50 ([2]; ref Rook et al., 2010, Zhao et al., 2018, read-out: BuChE (bis-(2)-β-carboline 4, Figure 1)): 22 nM
COC(=O)c1cc2c3ccccc3n(CCCCN(C)CCN(C)CCCCn3c4ccccc4c4cc(C(=O)OC)nc(C)c43)c2c(C)n1 [Compound 5, Bis-(9)-β-carboline]								IC50 ([1]; ref Rook et al., 2010, Zhao et al., 2018, read-out: AChE (bis-(9)-β-carboline 5, Figure 1)): 9600 nM; IC50 ([2]; ref Rook et al., 2010, Zhao et al., 2018, read-out: BuChE (bis-(9)-β-carboline 5, Figure 1)): 1500 nM; Aβ1-42 (bis-(9)-β-carboline 5, Figure 1) ([4]; ref Rook et al., 2010, Zhao et al., 2018): 65.5%
C=CCn1c2cc(OCCCCCCOc3ccc4c5ccnc(C)c5n(CC=C)c4c3)ccc2c2ccnc(C)c21 [Compound 6d, 1,6-bis ((9-allyl-1-methyl-9H-pyrido [3,4-b]indol-7-yl)oxy)hexane]	1.9	54.3 ± 3.6 nM	0.5	402 ± 23.7 nM	189 ± 13.6 nM	14.1 ± 0.5 µM		IC50 [6]: 102 ± 4.6 nM; effect on SHSY5Y cell viability ([10]; 0.1–100 μM, 48 h incubation): no significant impact on cell viability; cellular recovery from Aβ 1-42-induced damage [11]: significant cellular recovery
C=CCn1c2cc(OC(=O)CCCCN3CCN(Cc4ccc(C(F)(F)F)cc4)CC3)ccc2c2ccnc(C)c21 [Compound 7]								IC50 ([1]; ref Du et al., 2023, Haider et al., 2018, read-out: AChE (compound 7 of Figure 1)): 48.4 nM; IC50 ([2]; ref Du et al., 2023, Haider et al., 2018, read-out: BuChE (compound 7 of Figure 1)): 356 nM; IC50 ([4]; ref Du et al., 2023, Haider et al., 2018, read-out: Aβ1-42 (compound 7 of Figure 1)): 12400 nM
Cc1nccc2c3ccc(OCCCCCCCOc4ccc5c6ccnc(C)c6n(C)c5c4)cc3n(C)c12 [Compound 7a, 1,7-bis ((1,9-dimethyl-9H-pyrido [3,4-b]indol-7-yl)oxy)heptane]	>4.4	226 ± 13.4 nM	40.1	7.2 ± 0.8 nM	281 ± 24.5 nM	6.3 ± 0.2 µM	37.3%	effect on SHSY5Y cell viability ([10]; 1 μM, 48 h): pronounced detrimental effect
CCn1c2cc(OCCCCCCCCOc3ccc4c5ccnc(C)c5n(CC)c4c3)ccc2c2ccnc(C)c21 [Compound 8b, 1,8-bis ((9-ethyl-1-methyl-9H-pyrido [3,4-b]indol-7-yl)oxy)octane]	2.7	324 ± 20.5 nM	11.5	66.5 ± 4.1 nM	758 ± 52.6 nM	18.7 ± 0.9 µM		IC50 [6]: 855 ± 48.8 nM; effect on SHSY5Y cell viability ([10]; 1 μM, 48 h): pronounced detrimental effect
CCCn1c2cc(OCCCCCCCCOc3ccc4c5ccnc(C)c5n(CCC)c4c3)ccc2c2ccnc(C)c21 [Compound 8c, 1,8-bis ((1-methyl-9-propyl-9H-pyrido [3,4-b]indol-7-yl)oxy)octane]	>6.3	158 ± 11.6 nM	9.5	16.4 ± 1.1 nM	153 ± 8.3 nM	19.3 ± 1 µM	43.4%	cytotoxicity in SHSY5Y cells ([10]; 48 h): negligible cytotoxicity; SHSY5Y cell viability at increased concentration ([10]; 48 h): evident decrease in SHSY5Y cell viability
C=CCn1c2cc(OCCCCCCCCOc3ccc4c5ccnc(C)c5n(CC=C)c4c3)ccc2c2ccnc(C)c21 [Compound 8d, 1,8-bis ((9-allyl-1-methyl-9H-pyrido [3,4-b]indol-7-yl)oxy)octane]	>1.0	963 ± 69.5 nM		25.7 ± 1.9 nM	335 ± 13.8 nM	9.2 ± 0.4 µM	39.8%	cytotoxicity in SHSY5Y cells ([10]; 48 h): negligible cytotoxicity; SHSY5Y cell viability at increased concentration ([10]; 48 h): evident decrease in SHSY5Y cell viability; cellular recovery from Aβ 1-42-induced damage [11]: significant cellular recovery
Aβ 1−42: amyloid-β peptide 1−42 used to induce damage in SHSY5Y cells [reference compound]								reduction of viability of SHSY5Y neuroblastoma cells ([11]; treatment with Aβ 1−42 5 μM, 48 h, MTT): 48.7%
